Assay results from publication PMC6171243, “Suppression of lung cancer progression by isoliquiritigenin through its metabolite 2, 4, 2’, 4’-Tetrahydroxychalcone” (Journal of Experimental & Clinical Cancer Research : CR, 2018).

Target: Src (Homo sapiens, UniProt P12931)
Experiment: cell-free ADP-Glo Src kinase assay (Promega)
Type: biochemical

Src, sequence (P12931 2-536): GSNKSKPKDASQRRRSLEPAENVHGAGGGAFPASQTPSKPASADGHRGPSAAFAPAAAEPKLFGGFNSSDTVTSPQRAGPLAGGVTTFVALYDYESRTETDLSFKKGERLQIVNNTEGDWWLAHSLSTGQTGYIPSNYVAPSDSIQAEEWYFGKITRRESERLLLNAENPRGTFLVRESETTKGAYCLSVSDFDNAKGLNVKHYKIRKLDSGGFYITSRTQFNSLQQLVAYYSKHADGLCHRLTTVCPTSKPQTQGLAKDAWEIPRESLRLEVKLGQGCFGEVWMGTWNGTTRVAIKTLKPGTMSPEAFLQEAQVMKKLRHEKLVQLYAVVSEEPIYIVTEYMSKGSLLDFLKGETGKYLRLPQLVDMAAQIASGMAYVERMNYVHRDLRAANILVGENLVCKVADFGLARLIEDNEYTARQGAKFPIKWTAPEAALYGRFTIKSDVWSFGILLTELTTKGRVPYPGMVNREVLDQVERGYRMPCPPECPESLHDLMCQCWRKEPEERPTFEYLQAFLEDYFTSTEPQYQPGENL

O=C(/C=C/c1ccc(O)cc1O)c1ccc(O)cc1O [THC, 2,4, 2′, 4′-tetrahydroxychalcone]
IC50: 1440 nM
